Test results taken from ChEMBL document CHEMBL1132003, “2-chloro-3-substituted-1,4-naphthoquinone inactivators of human cytomegalovirus protease” (Bioorg Med Chem Lett, 1999).
pIC50: −log10 of the molar value. Blank lines part the entries; values can stand above or below the molecule they belong to.

Key:
[1] = test system: MRC5; test: Inhibitory activity against HCMV in a plaque assay(strain in MRC-5 cells); type: functional, cell-based; conditions: Homo sapiens
[2] = test system: MRC5; test: Inhibitory activity against HCMV protease in a plaque assay (strain AD169 in MRC-5 cells); type: functional, cell-based; conditions: Homo sapiens
[3] = test system: HCMV protease (assemblin, Human betaherpesvirus 5); test: Inhibitory activity against HCMV protease by SPA assay at 150 uM concentration
[4] = biological target: T1, Neutrophil elastase (Homo sapiens, UniProt P08246); test: Inhibitory activity against human Elastase […]
T1 sequence (P08246 whole entry): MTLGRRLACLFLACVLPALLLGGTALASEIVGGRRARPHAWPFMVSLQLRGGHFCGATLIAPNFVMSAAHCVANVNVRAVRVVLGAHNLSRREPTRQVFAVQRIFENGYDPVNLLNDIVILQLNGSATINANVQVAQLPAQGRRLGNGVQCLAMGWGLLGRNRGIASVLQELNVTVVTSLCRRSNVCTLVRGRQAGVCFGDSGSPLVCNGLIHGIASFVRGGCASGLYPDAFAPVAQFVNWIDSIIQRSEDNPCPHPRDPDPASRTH

SMILES: CC(=O)C(C(=O)OC(C)C)C1=C(Cl)C(=O)c2ccccc2C1=O (centres undefined)
pIC50 [1]: 4.89

SMILES: CCOC(=O)C(C(C)=O)C1=C(Cl)C(=O)c2ccccc2C1=O (centres undefined)
pIC50 [2]: 5.00

inhibition [3]: 11%
SMILES: CC1(C)CC(=O)C(C2=C(O)C(=O)c3ccccc3C2=O)C(=O)C1

pIC50 [4]: 4.52
SMILES: CC(=O)C(C(=O)OCc1ccccc1)C1=C(Cl)C(=O)c2ccccc2C1=O (centres undefined)
